Patent US11730743B2, “Protection of cells from degeneration and treatment of geographic atrophy” (University of Kentucky Research Foundation, priority 2012, dated 2023)
The star is where a group is joined. Cbz = O=C(OCc1ccccc1)*; CH2F = FC*

Legend:
wild-type mice [1] = test: Alu RNA- or pAlu-induced RPE degeneration after subretinal injection (fundus photographs, ZO-1 flat mounts); assay type: in vivo; details: test agent intravitreous; for pAlu-induced RPE degeneration: subretinal pAlu
Method: Subretinal injection and imaging. Subretinal injections (1 μL) in mice were performed using a Pico-Injector (PLI-100, Harvard Apparatus). In vivo transfection of plasmids was achieved using 10% Neuroporter (Genlantis). Fundus imaging was performed on a TRC-50 IX camera (Topcon) linked to a digital imaging system (Sony). Immunolabeling of RPE flat mounts was performed using antibodies against human zonula occludens-1 (Invitrogen).
(§1) Fundus photography. Retinal photographs of dilated mouse eyes were taken with a TRC-50 IX camera (Topcon) linked to a digital imaging system (Sony).
(§2) Immunolabeling. Human eyes fixed in 2-4% paraformaldehyde were prepared as eyecups, cryoprotected in 30% sucrose, embedded in optimal cutting temperature compound (Tissue-Tek OCT; Sakura Finetek), and cryosectioned into 10 μm sections. Depigmentation was achieved using 0.25% potassium permanganate and 0.1% oxalic acid. Immunohistochemical staining was performed with the rabbit antibody against NLRP3 (1:100, Sigma Aldrich) or rabbit antibody against Caspase-1 (prediluted, AbCam). Isotype IgG was substituted for the primary antibody to assess the specificity of the staining. Bound antibody was detected with biotin-conjugated secondary antibodies, followed by incubation with ABC reagent and visualized by Vector Blue (Vector Laboratories). Levamisole (Vector Laboratories) was used to block endogenous alkaline phosphatase activity. Slides were washed in PBS, counterstained with neutral red (Fisher Scientific), rinsed with deionized water, air dried, and then mounted in Vectamount (Vector Laboratories). Fluorescent labeling of human tissue was performed with the rabbit antibody against PYCARD (1:50, Clone N-15, Santa Cruz Biotechnology). Immunolabeling was visualized by fluorescently conjugated anti-rabbit secondary antibody (Invitrogen). Tissue autofluorescence was quenched by incubating the sections in 0.3% Sudan black (Fisher Scientific). Sections were mounted in Vectashield with DAPI (Vector Laboratories). Mouse RPE/choroid flat mounts were fixed with 4% paraformaldehyde or 100% methanol, stained with rabbit antibodies against human zonula occludens-1 (1:100, Invitrogen) and visualized with Alexa594 (Invitrogen). All images were obtained using the Leica SP-5 or Zeiss Axio Observer Z1 microscopes.
Subretinal injection. Subretinal injections (1 μL) in mice were performed using a Pico-Injector (PLI-100, Harvard Apparatus). In vivo transfection of plasmids coding for two different Alu sequences (pAlu) or empty control vector (pNull) (Bennett et al., 2008; Kaneko et al., 2011; Shaikh et al., 1997) was achieved using 10% Neuroporter (Genlantis). AAV1-BEST1-Cre (Alexander and Hauswirth, 2008) or AAV1-BEST1-GFP were injected at […] pfu/mL and in vitro transcribed Alu RNA was injected at 0.3 mg/mL.
(§3) Drug treatments. siRNAs formulated in siRNA buffer (20 mM KCL, 0.2 mM MgCl2 in HEPES buffer at pH 7.5; Dharmacon) or phosphate buffered saline (PBS; Sigma-Aldrich); the TLR4 antagonist Ultra Pure Rhodobacter sphaeroides LPS (LPS-RS, InvivoGen), a peptide inhibitor of MyD88 homodimerization IMG-2005 (IMGENEX), control inhibitor (IMGENEX), recombinant IL-18 (Medical & Biological Laboratories), neutralizing rat antibodies against mouse IL-1β (IMGENEX), neutralizing rat antibodies against mouse IL-18 (Medical & Biological Laboratories), isotype control IgGs (R&D Systems or eBioscience as appropriate), Caspase-1 inhibitor Z-WEHD-FMK (R&D Systems), Caspase-3 inhibitor Z-DEVD-FMK (R&D Systems), Caspase control inhibitor Z-FA-FMK (R&D Systems), (2R,4R)-APDC (Enzo Life Sciences), Glipizide (Sigma-Aldrich), Glyburide (Sigma-Aldrich), and P2X7 receptor antagonist A438079 (Tocris Bioscience) were dissolved in phosphate buffered saline (PBS; Sigma-Aldrich) or dimethyl sulfoxide (DMSO; Sigma-Aldrich), and injected into the vitreous humor in a total volume of 1 μL with a 33-gauge Exmire microsyringe (Ito Corporation). […]

wild-type mice [2] = test: Laser-induced choroidal neovascularization; assay type: in vivo; details: intravitreous injection
human RPE cells = test system: human RPE cells
Method: Cell viability. Cell viability measurements were performed using the CellTiter 96 AQueous One Solution Cell Proliferation Assay (Promega) in according to the manufacturer's instructions.
Cell culture. All cell cultures were maintained at 37° C. and 5% CO2. Primary mouse RPE cells were isolated as previously described (Yang et al., 2009) and grown in Dulbecco Modified Eagle Medium (DMEM) supplemented with 20% FBS and standard antibiotics concentrations. Primary human RPE cells were isolated as previously described (Yang et al., 2008) and maintained in DMEM supplemented with 10% FBS and antibiotics. HeLa cells were maintained in DMEM supplemented with 20% FBS and standard antibiotics concentrations. THP-1 cells were cultured in RPMI 1640 medium supplemented with 10% FBS and antibiotics.
Transient transfection. Human or mouse RPE cells were transfected with pUC19, pAlu, pCDNA3.1/Dicer-FLAG, pCDNA3.1, Alu RNA, NLRP3 siRNA sense, PYCARD siRNA sense, MyD88 siRNA sense, DICER1 antisense oligonucleotide (AS), control (for DICER1) AS, Alu AS, and control (for Alu) AS using Lipofectamine 2000 (Invitrogen) according to the manufacturer's instructions.
Cell viability. MTS assays were performed using the CellTiter 96 AQueous One Solution Cell Proliferation Assay (Promega) according to the manufacturer's instructions. For examining the cytoprotective effect of glycine in Alu RNA induced cell death, human RPE cells were transfected with pNull/pAlu. At 6 h post-transfection the cells were incubated with complete media containing glycine (5 mM) or vehicle, and cell viability was assessed after 24 h. Similarly, human RPE cells primed with LPS (5 μg/ml for 6 h) were treated with ATP (25 μM) in the presence of glycine containing media (5 mM). 30 min post ATP cell viability was assessed as described above.

IRAK1/4 = test: Western blot of phosphorylated IRAK1/4 in human RPE cells; assay type: cell-based; details: normalized to Vinculin
Method: (§4) Protein abundance and activity. Protein abundance was assessed by Western blot analysis using primary antibodies recognizing Caspase-1 (1:500; Invitrogen), pIRAK1 (1:500; Thermo Scientific), pIRAK4 (1:500, Abbomax, Inc), PYCARD (1:200, Santa Cruz Biotechnology), NLRP3 (1:500, Enzo Life Sciences) and Vinculin (1:1,000; Sigma-Aldrich). Caspase-1 activity was visualized using Caspalux1 E1D2 (OncoImmunin) reagent according to the manufacturer's instructions.
Western blotting. Tissues or cells were homogenized in lysis buffer (10 mM Tris base, pH 7.4, 150 mM NaCl, 1 mM EDTA, 1 mM EGTA, 1% Triton X-100, 0.5% NP-40, protease and phosphatase inhibitor cocktail (Roche)). Protein concentrations were determined using a Bradford assay kit (Bio-Rad) with bovine serum albumin as a standard. Proteins (40-100 μg) were run on NuPAGE Bis-Tris gels (Invitrogen) and transferred to Immun-Blot PVDF membranes (Bio-Rad). Cells were scraped in hot Laemmli buffer (62.5 mM Tris base, pH 6.8, 2% SDS, 5% 2-Mercaptoethanol, 10% Glycerol, 0.01% Bromophenol Blue). Samples were boiled and run on 4-20% NuPAGE Tris-Glycine gels (Invitrogen). […] Protein loading was assessed by immunoblotting using an anti-Vinculin antibody (1:1,000; Sigma-Aldrich). […]

IL-18 = test: Western blot of IL-18 maturation in RPE cell lysates of wild-type mice; assay type: in vivo; details: inhibitor intravitreous
Method: as §3
Western blotting. […] Protein concentrations were determined using a Bradford assay kit (Bio-Rad) with bovine serum albumin as a standard. […] Protein loading was assessed by immunoblotting using an anti-Vinculin antibody (1:1,000; Sigma-Aldrich). […]

Caspase-1 = target: T1, Caspase-1 (Homo sapiens, UniProt P29466); test: Caspase-1 activation in cultured cells (western blot p20, Caspalux1 substrate cleavage); assay type: cell-based; details: human RPE cells; Caspalux1
T1 construct: endogenous in cells; host or cells: primary human RPE cells; also THP-1 and HeLa cells
T1 sequence (P29466 120-297 limits assumed): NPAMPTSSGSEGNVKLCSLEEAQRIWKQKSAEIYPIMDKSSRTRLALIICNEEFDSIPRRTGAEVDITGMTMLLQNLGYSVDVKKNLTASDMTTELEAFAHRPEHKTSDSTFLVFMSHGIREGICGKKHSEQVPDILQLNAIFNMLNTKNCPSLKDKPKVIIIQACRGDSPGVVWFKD
T1 sequence (P29466 317-404 limits assumed): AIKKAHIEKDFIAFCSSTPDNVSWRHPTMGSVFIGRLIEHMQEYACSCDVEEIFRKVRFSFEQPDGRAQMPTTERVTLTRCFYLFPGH
Method: as §4
Western blotting. Tissues or cells were homogenized in lysis buffer (10 mM Tris base, pH 7.4, 150 mM NaCl, 1 mM EDTA, 1 mM EGTA, 1% Triton X-100, 0.5% NP-40, protease and phosphatase inhibitor cocktail (Roche)). Protein concentrations were determined using a Bradford assay kit (Bio-Rad) with bovine serum albumin as a standard. Proteins (40-100 μg) were run on NuPAGE Bis-Tris gels (Invitrogen) and transferred to Immun-Blot PVDF membranes (Bio-Rad). Cells were scraped in hot Laemmli buffer (62.5 mM Tris base, pH 6.8, 2% SDS, 5% 2-Mercaptoethanol, 10% Glycerol, 0.01% Bromophenol Blue). Samples were boiled and run on 4-20% NuPAGE Tris-Glycine gels (Invitrogen). The transferred membranes were blocked for 1 h at RT and incubated with antibodies against human Caspase-1 (1:500; Invitrogen), mouse Caspase1 (1:500; MBL), NLRP3 (1:1000; Enzo Life Sciences), PYCARD (1:1000, RayBiotech), phospho-IRAK1 (S376) (1:500, Thermo Scientific), phospho-IRAK4 (T345) (1:500, AbboMax), DICER1 (1:2,000; Bethyl), MyD88 (1:1,000; Cell Signaling), and mouse IL-18 (1:200; MBL) at 4° C. overnight. Protein loading was assessed by immunoblotting using an anti-Vinculin antibody (1:1,000; Sigma-Aldrich). The secondary antibodies were used (1:5,000) for 1 h at RT. […]
Caspase-1 activity. […] Caspalux1E1D2 signal was quantified reading the fluorescence (excitation 552 nm, emission 580 nm) using a Synergy 4 reader (Biotek). Quantification of fluorescence from images was performed by converting images into grayscale in Adobe Photoshop CS5, and measuring the integrated density of black and white images using ImageJ software (NIH) (Bogdanovich et al., 2008).

Dicer1f/f mice = test: RPE degeneration induced by subretinal AAV1-BEST1-Cre (DICER1 loss); assay type: in vivo; details: inhibitor intravitreous
Method: as §2, with “Sections were mounted in Vectashield with DAPI (Vector Laboratories). Mouse RPE/choroid flat mounts were fixed with 4% paraformaldehyde or 100% methanol, stained with rabbit antibodies against human zonula occludens-1 (1:100, Invitrogen) and visualized with Alexa594 (Invitrogen). All images were obtained using the Leica SP-5 or Zeiss Axio Observer Z1 microscopes.” left out

mice = test: RPE degeneration induced by intravitreous recombinant IL-18; assay type: in vivo; details: for RPE degeneration induced by recombinant IL-18: intravitreous
Method: as §1
as §2, with “microscopes. […]” for “microscopes.”

Caspase-3 = Caspase-3 activation in the RPE of wild-type mice; assay type: in vivo; details: IL-18 alone
Method: Drug treatments. siRNAs formulated in siRNA buffer (20 mM KCL, 0.2 mM MgCl2 in HEPES buffer at pH 7.5; Dharmacon) or phosphate buffered saline (PBS; Sigma-Aldrich); the TLR4 antagonist Ultra Pure Rhodobacter sphaeroides LPS (LPS-RS, InvivoGen), a peptide inhibitor of MyD88 homodimerization IMG-2005 (IMGENEX), control inhibitor (IMGENEX), recombinant IL-18 (Medical & Biological Laboratories), neutralizing rat antibodies against mouse IL-1β (IMGENEX), neutralizing rat antibodies against mouse IL-18 (Medical & Biological Laboratories), isotype control IgGs (R&D Systems or eBioscience as appropriate), Caspase-1 inhibitor Z-WEHD-FMK (R&D Systems), Caspase-3 inhibitor Z-DEVD-FMK (R&D Systems), Caspase control inhibitor Z-FA-FMK (R&D Systems), (2R,4R)-APDC (Enzo Life Sciences), Glipizide (Sigma-Aldrich), Glyburide (Sigma-Aldrich), and P2X7 receptor antagonist A438079 (Tocris Bioscience) were dissolved in phosphate buffered saline (PBS; Sigma-Aldrich) or dimethyl sulfoxide (DMSO; Sigma-Aldrich), and injected into the vitreous humor in a total volume of 1 μL with a 33-gauge Exmire microsyringe (Ito Corporation). […] As a control, Luc siRNA-chol (17+2 nt) was used with identical dosages.
Caspase-3 activity. The caspase-3 activity was measured using Caspase-3 Fluorimetric Assay (R&D Systems) according to the manufacturer's instruction.

Clc1cccc(-c2nnnn2Cc2cccnc2)c1Cl [A438079]
pAlu-induced RPE degeneration (wild-type mice [1]): blocked

O=C(Nc1nc2ccccc2n1CCN1CCOCC1)c1cccc([N+](=O)[O-])c1 [N-(2-Morpholinylethyl)-2-(3-nitrobenzoylamido)-benzimidazole]
laser-induced choroidal neovascularization (wild-type mice [2]): reduced
Alu RNA-induced cytotoxicity, viability of human RPE cells (human RPE cells): protects
pAlu-induced cytotoxicity, viability of human RPE cells (human RPE cells): protects
Alu RNA-induced RPE degeneration (wild-type mice [1]; subretinal Alu RNA): blocked

COc1ccc(Cl)cc1C(=O)NCCc1ccc(S(=O)(=O)NC(=O)NC2CCCCC2)cc1 [glyburide, Glyburide]
pAlu-induced RPE degeneration (wild-type mice [1]): inhibited

NCC(=O)O [glycine]
human RPE cell death induced by LPS+ATP (human RPE cells; LPS 5 μg/ml 6 h, ATP 25 μM, glycine 5 mM, 30 min post ATP): inhibited

Cbz-WEHD-CH2F
Alu RNA-induced phosphorylation of IRAK1/4 (IRAK1/4): reduced
pAlu-induced IL-18 maturation (IL-18): blocked
Alu RNA-induced fluorescent substrate cleavage (Caspase-1 activity) (Caspase-1): blocked
AAV1-BEST1-Cre-induced RPE degeneration (Dicer1f/f mice): blocked
pAlu-induced RPE degeneration (wild-type mice [1]): blocked

Z-DEVD-FMK
IL-18-induced RPE degeneration (mice; wild-type mice, inhibitor intravitreous): blocked

B1: Recombinant IL-18: recombinant IL-18 (Medical & Biological Laboratories) (protein, UniProt P70380 36-192, looked up)
Interleukin-18: NFGRLHCTTAVIRNINDQVLFVDKRQPVFEDMTDIDQSASEPQTRLIIYMYKDSEVRGLAVTLSVKDSKMSTLSCKNKIISFEEMDPPENIDDIQSDLIFFQKRVPGHNKMEFESSLYEGHFLACQKEDDAFKLILKKKDENGDKSVMFTLTNLHQS
Caspase-3 activation in the RPE (Caspase-3): induced Caspase-3 activation
RPE degeneration induced by recombinant IL-18 (mice; Casp1−/− mice): induced RPE degeneration
RPE degeneration induced by recombinant IL-18 (mice; wild-type mice): induced RPE degeneration
